{"source": "ChEMBL document CHEMBL6096706", "about": "“Discovery of WDR5-MLL1 and HDAC Dual-Target Inhibitors for the Treatment of Acute Myeloid Leukemia” (J Med Chem, 2025)", "key": {"[1]": {"biological_target": "Histone-lysine N-methyltransferase 2A/WDR5 (Homo sapiens, UniProt P61964)", "experiment": "Inhibition of MLL1/WDR5 (unknown origin) protein-protein interaction incubated for 2 hrs by FP analysis", "type": "protein assay"}, "[2]": {"biological_target": "Histone deacetylase 1 (Homo sapiens, UniProt Q13547)", "sequence (Q13547 whole entry)": "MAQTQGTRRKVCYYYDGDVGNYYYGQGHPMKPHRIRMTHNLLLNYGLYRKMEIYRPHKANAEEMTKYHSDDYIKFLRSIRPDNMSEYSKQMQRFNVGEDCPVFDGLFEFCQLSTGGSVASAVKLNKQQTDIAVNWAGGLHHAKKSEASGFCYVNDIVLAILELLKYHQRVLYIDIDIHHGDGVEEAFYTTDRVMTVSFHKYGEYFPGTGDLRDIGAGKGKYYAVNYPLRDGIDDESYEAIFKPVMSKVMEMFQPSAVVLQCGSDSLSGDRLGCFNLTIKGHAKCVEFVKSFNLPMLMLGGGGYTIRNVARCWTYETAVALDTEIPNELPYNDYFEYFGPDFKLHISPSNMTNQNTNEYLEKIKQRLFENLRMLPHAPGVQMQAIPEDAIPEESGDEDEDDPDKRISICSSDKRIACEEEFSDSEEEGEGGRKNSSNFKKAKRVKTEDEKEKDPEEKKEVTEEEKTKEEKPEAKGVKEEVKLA", "experiment": "Inhibition of HDAC1 (unknown origin) by fluorescence based assay"}, "[3]": {"tested_on": "MOLM-13", "experiment": "cells", "type": "functional, cell-based", "details": "Homo sapiens, MOLM-13, 72 h", "description": "Antiproliferative activity against human MOLM-13 cells assessed as inhibition of cell growth measured after 72 hrs by CellTiterGlo assay"}, "[4]": {"tested_on": "MV4-11", "experiment": "cells", "type": "functional, cell-based", "details": "Homo sapiens, MV4-11, 72 h", "description": "Antiproliferative activity against human MV4-11 cells assessed as inhibition of cell growth measured after 72 hrs by CellTiterGlo assay"}, "[5]": {"biological_target": "Histone deacetylase 3 (Homo sapiens, UniProt O15379)", "sequence (O15379 whole entry)": "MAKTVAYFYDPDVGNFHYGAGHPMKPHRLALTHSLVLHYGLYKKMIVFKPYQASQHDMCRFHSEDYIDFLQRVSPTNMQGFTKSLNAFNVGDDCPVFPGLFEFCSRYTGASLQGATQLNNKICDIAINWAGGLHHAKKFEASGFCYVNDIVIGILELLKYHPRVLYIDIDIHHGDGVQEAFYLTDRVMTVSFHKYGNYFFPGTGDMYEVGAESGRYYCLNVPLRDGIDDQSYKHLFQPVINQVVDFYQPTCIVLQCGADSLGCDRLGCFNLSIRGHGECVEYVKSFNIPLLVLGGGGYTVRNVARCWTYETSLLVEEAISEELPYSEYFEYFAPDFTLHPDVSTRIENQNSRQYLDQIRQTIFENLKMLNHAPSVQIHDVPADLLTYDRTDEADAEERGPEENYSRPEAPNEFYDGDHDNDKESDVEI", "experiment": "Inhibition of HDAC3 (unknown origin) by fluorescence based assay"}, "[6]": {"biological_target": "T1, Protein deacetylase HDAC6 (Homo sapiens, UniProt Q9UBN7)", "T1 sequence (Q9UBN7 whole entry)": "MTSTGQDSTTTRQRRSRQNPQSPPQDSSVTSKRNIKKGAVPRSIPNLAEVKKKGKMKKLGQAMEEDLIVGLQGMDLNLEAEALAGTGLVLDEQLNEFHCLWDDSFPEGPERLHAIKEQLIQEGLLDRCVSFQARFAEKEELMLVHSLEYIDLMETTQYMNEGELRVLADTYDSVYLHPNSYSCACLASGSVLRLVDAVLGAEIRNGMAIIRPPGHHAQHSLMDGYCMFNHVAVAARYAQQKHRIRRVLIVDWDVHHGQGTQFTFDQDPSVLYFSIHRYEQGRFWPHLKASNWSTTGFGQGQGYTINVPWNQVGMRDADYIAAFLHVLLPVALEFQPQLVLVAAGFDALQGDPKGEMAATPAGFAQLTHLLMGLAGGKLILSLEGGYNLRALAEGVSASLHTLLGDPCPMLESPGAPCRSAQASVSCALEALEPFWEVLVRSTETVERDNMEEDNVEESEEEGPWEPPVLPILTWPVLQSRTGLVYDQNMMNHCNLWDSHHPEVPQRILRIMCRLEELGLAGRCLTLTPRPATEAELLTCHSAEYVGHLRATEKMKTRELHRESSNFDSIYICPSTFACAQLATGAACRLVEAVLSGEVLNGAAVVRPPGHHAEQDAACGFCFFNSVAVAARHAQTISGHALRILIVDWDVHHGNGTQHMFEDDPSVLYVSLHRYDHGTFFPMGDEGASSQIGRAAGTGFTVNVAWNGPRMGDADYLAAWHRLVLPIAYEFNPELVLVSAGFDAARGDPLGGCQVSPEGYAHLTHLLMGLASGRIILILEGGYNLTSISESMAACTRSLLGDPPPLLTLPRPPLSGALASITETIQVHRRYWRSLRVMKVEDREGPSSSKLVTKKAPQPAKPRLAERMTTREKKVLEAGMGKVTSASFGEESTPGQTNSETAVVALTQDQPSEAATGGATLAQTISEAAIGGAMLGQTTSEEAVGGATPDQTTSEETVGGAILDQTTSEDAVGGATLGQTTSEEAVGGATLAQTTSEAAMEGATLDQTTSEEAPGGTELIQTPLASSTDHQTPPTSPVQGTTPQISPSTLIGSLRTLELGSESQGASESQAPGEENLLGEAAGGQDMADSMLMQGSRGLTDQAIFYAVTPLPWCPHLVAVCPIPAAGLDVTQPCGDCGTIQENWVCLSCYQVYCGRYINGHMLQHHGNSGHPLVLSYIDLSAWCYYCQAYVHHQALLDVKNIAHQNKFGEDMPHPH", "experiment": "Inhibition of HDAC6 (unknown origin) by fluorescence based assay"}, "[7]": {"biological_target": "T2, Histone deacetylase 8 (Homo sapiens, UniProt Q9BY41)", "T2 sequence (Q9BY41 whole entry)": "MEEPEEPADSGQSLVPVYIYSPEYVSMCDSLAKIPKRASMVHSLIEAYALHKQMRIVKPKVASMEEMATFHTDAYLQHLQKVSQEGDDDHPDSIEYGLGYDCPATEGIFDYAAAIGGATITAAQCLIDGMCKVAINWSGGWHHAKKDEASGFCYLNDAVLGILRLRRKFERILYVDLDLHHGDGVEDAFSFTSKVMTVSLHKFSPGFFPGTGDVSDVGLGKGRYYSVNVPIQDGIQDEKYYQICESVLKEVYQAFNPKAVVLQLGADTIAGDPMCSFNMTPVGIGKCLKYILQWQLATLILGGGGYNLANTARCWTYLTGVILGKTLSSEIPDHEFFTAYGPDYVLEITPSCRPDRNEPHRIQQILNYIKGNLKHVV", "experiment": "Inhibition of HDAC8 (unknown origin) by fluorescence based assay"}, "[8]": {"biological_target": "Histone deacetylase 4 (Homo sapiens, UniProt P56524)", "sequence (P56524 whole entry)": "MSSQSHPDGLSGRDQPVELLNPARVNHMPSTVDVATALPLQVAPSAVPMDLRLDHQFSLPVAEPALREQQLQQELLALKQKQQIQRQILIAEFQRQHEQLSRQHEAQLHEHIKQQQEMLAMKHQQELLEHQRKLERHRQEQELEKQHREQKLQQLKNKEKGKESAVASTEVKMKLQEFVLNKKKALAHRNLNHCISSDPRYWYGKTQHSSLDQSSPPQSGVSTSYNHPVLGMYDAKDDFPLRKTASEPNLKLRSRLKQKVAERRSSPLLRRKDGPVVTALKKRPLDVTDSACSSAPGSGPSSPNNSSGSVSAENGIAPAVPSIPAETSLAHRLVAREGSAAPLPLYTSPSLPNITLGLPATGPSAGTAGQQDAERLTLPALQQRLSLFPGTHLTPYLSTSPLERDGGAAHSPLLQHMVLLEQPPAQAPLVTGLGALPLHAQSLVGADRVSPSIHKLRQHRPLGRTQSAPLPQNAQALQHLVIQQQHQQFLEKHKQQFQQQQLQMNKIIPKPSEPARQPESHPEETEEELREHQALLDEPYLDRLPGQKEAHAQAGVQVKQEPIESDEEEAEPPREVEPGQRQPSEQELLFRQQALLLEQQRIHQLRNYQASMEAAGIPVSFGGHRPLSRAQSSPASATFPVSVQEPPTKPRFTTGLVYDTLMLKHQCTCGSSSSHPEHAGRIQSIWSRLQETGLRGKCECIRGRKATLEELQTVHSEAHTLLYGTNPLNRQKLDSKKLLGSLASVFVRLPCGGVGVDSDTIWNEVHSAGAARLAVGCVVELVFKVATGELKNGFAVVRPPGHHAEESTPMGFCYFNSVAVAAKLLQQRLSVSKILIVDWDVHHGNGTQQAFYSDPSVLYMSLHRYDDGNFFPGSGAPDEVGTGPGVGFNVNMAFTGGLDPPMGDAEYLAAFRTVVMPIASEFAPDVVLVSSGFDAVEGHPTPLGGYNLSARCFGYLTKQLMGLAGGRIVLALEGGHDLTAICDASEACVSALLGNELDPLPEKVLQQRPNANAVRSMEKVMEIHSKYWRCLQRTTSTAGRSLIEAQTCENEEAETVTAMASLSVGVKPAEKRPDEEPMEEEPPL", "experiment": "Inhibition of HDAC4 (unknown origin) by fluorescence based assay"}, "[9]": {"biological_target": "Histone-lysine N-methyltransferase 2A (Homo sapiens, UniProt Q03164)", "experiment": "Inhibition of MLL1 (unknown origin) by fluorescence based assay"}, "[10]": {"biological_target": "T3, Histone deacetylase 11 (Homo sapiens, UniProt Q96DB2)", "T3 sequence (Q96DB2 whole entry)": "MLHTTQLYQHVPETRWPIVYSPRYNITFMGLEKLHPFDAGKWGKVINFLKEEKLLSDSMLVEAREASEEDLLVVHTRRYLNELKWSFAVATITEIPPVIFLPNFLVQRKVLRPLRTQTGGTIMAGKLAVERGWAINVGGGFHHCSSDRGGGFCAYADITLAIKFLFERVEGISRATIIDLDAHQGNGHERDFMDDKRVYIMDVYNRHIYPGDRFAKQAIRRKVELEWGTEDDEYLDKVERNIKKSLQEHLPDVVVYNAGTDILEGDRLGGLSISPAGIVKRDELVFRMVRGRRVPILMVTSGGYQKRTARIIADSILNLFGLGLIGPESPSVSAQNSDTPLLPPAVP", "experiment": "Inhibition of HDAC11 (unknown origin) by fluorescence based assay"}, "[11]": {"biological_target": "Histone deacetylase 2 (Homo sapiens, UniProt Q92769)", "sequence (Q92769 whole entry)": "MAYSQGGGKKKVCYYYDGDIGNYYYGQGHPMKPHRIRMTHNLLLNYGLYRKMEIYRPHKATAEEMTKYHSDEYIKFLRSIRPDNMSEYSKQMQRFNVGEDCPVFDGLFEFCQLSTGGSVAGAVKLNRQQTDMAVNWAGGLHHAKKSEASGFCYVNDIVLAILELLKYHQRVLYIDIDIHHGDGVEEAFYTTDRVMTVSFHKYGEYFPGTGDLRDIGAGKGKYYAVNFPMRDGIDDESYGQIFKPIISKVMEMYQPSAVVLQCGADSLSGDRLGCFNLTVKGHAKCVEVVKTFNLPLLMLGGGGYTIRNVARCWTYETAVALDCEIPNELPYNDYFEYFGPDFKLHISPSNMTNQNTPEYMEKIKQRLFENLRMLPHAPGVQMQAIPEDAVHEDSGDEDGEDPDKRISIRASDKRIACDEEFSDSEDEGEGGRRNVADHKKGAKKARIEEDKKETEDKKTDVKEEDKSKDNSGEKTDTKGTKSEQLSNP", "experiment": "Inhibition of HDAC2 (unknown origin) by fluorescence based assay"}, "[12]": {"tested_on": "MV4-11", "experiment": "Induction of apoptosis in human MV4-11 cells assessed as viable cells at 200 nmol/L incubated for 72 hrs by Annexin V/PI staining based flow cytometry analysis (reference value: 90.23%)", "type": "functional"}, "[13]": {"tested_on": "MV4-11", "experiment": "Induction of apoptosis in human MV4-11 cells assessed as late apoptotic cells at 200 nmol/L incubated for 72 hrs by Annexin V/PI staining based flow cytometry analysis (reference value: 5.14%)", "type": "functional"}, "[14]": {"tested_on": "MV4-11", "experiment": "Induction of apoptosis in human MV4-11 cells assessed as early apoptotic cells at 200 nmol/L incubated for 72 hrs by Annexin V/PI staining based flow cytometry analysis (reference value: 4.17 %)", "type": "functional"}, "[15]": {"tested_on": "MV4-11", "experiment": "Induction of apoptosis in human MV4-11 cells assessed as necrotic cells at 200 nmol/L incubated for 72 hrs by Annexin V/PI staining based flow cytometry analysis (reference value: 0.46%)", "type": "functional"}}, "data": [{"smiles": "Cc1c(F)c(N)cc(C(=O)Nc2cc(-c3ccc(NC(=O)Cc4ccc(/C=C/C(=O)NO)cc4)cc3)ccc2N2CCN(C)CC2)c1Cl", "values": [{"measurement": "IC50", "setting": "[1]", "value": 69, "unit": "nM"}, {"measurement": "IC50", "setting": "[2]", "value": 831, "unit": "nM"}, {"measurement": "IC50", "setting": "[3]", "value": 310, "unit": "nM"}, {"measurement": "IC50", "setting": "[4]", "value": 115, "unit": "nM"}, {"measurement": "IC50", "setting": "[5]", "value": 663, "unit": "nM"}, {"measurement": "IC50", "setting": "[6]", "value": 157, "unit": "nM"}]}, {"smiles": "Cc1c(F)c(N)cc(C(=O)Nc2cc(-c3ccc(NC(=O)c4ccc(CC(=O)NO)cc4)cc3)ccc2N2CCN(C)CC2)c1Cl", "values": [{"measurement": "IC50", "setting": "[1]", "value": 226, "unit": "nM"}]}, {"smiles": "Cc1c(F)c(N)cc(C(=O)Nc2cc(-c3ccc(NC(=O)CCc4ccc(/C=C/C(=O)NO)cc4)cc3)ccc2N2CCN(C)CC2)c1Cl", "values": [{"measurement": "IC50", "setting": "[1]", "value": 382, "unit": "nM"}, {"measurement": "IC50", "setting": "[2]", "value": 925, "unit": "nM"}, {"measurement": "IC50", "setting": "[3]", "value": 3220, "unit": "nM"}, {"measurement": "IC50", "setting": "[4]", "value": 145, "unit": "nM"}, {"measurement": "IC50", "setting": "[5]", "value": 586, "unit": "nM"}, {"measurement": "IC50", "setting": "[6]", "value": 157, "unit": "nM"}]}, {"smiles": "Cc1c(F)c(N)cc(C(=O)Nc2cc(-c3ccc(NC(=O)CCCCCC(=O)NO)cc3)ccc2N2CCN(C)CC2)c1Cl", "values": [{"measurement": "IC50", "setting": "[1]", "value": 181, "unit": "nM"}]}, {"smiles": "Cc1c(F)c(N)cc(C(=O)Nc2cc(-c3ccc(C(=O)NCCCCC(=O)NO)cc3)ccc2N2CCN(C)CC2)c1Cl", "values": [{"measurement": "IC50", "setting": "[1]", "value": 40, "unit": "nM"}]}, {"smiles": "Cc1c(F)c(N)cc(C(=O)Nc2cc(-c3ccc(C(=O)NCCCCCC(=O)NO)cc3)ccc2N2CCN(C)CC2)c1Cl", "values": [{"measurement": "IC50", "setting": "[1]", "value": 71, "unit": "nM"}]}, {"smiles": "Cc1c(F)c(N)cc(C(=O)Nc2cc(-c3ccc(NC(=O)CCCCCCCC(=O)NO)cc3)ccc2N2CCN(C)CC2)c1Cl", "values": [{"measurement": "IC50", "setting": "[1]", "value": 230, "unit": "nM"}]}, {"smiles": "Cc1c(F)c(N)cc(C(=O)Nc2cc(-c3ccc(NC(=O)CCCCC(=O)NO)cc3)ccc2N2CCN(C)CC2)c1Cl", "values": [{"measurement": "IC50", "setting": "[1]", "value": 33, "unit": "nM"}]}, {"smiles": "Cc1c(F)c(N)cc(C(=O)Nc2cc(-c3ccc(NC(=O)CCCC(=O)NO)cc3)ccc2N2CCN(C)CC2)c1Cl", "values": [{"measurement": "IC50", "setting": "[1]", "value": 43, "unit": "nM"}]}, {"smiles": "Cc1c(F)c(N)cc(C(=O)Nc2cc(-c3ccc(NC(=O)CCCCCCC(=O)NO)cc3)ccc2N2CCN(C)CC2)c1Cl", "values": [{"measurement": "IC50", "setting": "[1]", "value": 41, "unit": "nM"}, {"measurement": "IC50", "setting": "[7]", "value": "> 10000", "unit": "nM"}, {"measurement": "IC50", "setting": "[8]", "value": 3960, "unit": "nM"}, {"measurement": "IC50", "setting": "[9]", "value": 392, "unit": "nM"}, {"measurement": "IC50", "setting": "[10]", "value": 7610, "unit": "nM"}, {"measurement": "IC50", "setting": "[11]", "value": 99, "unit": "nM"}]}, {"smiles": "Cc1c(F)c(N)cc(C(=O)Nc2cc(-c3ccc(C(=O)NCCCCCCC(=O)NO)cc3)ccc2N2CCN(C)CC2)c1Cl", "values": [{"measurement": "IC50", "setting": "[1]", "value": 40, "unit": "nM"}]}, {"smiles": "Cc1c(F)c(N)cc(C(=O)Nc2cc(-c3ccc(C(=O)NCCCCCCCC(=O)NO)cc3)ccc2N2CCN(C)CC2)c1Cl", "values": [{"measurement": "IC50", "setting": "[1]", "value": 188, "unit": "nM"}]}, {"smiles": "Cc1c(F)c(N)cc(C(=O)Nc2cc(-c3ccc(NC(=O)c4ccc(/C=C/C(=O)NO)cc4)cc3)ccc2N2CCN(C)CC2)c1Cl", "values": [{"measurement": "IC50", "setting": "[1]", "value": 435, "unit": "nM"}, {"measurement": "IC50", "setting": "[2]", "value": 6980, "unit": "nM"}, {"measurement": "IC50", "setting": "[3]", "value": 2580, "unit": "nM"}, {"measurement": "IC50", "setting": "[4]", "value": 122, "unit": "nM"}, {"measurement": "IC50", "setting": "[5]", "value": 5900, "unit": "nM"}, {"measurement": "IC50", "setting": "[6]", "value": 1200, "unit": "nM"}]}, {"smiles": "Cc1c(F)c(N)cc(C(=O)Nc2cc(-c3ccc(C(=O)Nc4ccccc4N)cc3)ccc2N2CCN(C)CC2)c1Cl", "values": [{"measurement": "IC50", "setting": "[1]", "value": 215, "unit": "nM"}]}, {"smiles": "Cc1c(F)c(N)cc(C(=O)Nc2cc(-c3ccc(C(=O)NCCCC(=O)NO)cc3)ccc2N2CCN(C)CC2)c1Cl", "values": [{"measurement": "IC50", "setting": "[1]", "value": 30, "unit": "nM"}]}, {"smiles": "Cc1c(F)c(N)cc(C(=O)Nc2cc(-c3ccc(NC(=O)Cc4ccc(C(=O)NO)cc4)cc3)ccc2N2CCN(C)CC2)c1Cl", "values": [{"measurement": "IC50", "setting": "[1]", "value": 87, "unit": "nM"}]}, {"smiles": "Cc1c(F)c(N)cc(C(=O)Nc2cc(-c3ccc(NC(=O)c4ccccc4N)cc3)ccc2N2CCN(C)CC2)c1Cl", "values": [{"measurement": "IC50", "setting": "[1]", "value": 410, "unit": "nM"}, {"measurement": "IC50", "setting": "[5]", "value": 10000, "unit": "nM"}]}, {"smiles": "O=C(CCCCCCC(=O)Nc1ccccc1)NO", "note": "[VORINOSTAT]", "values": [{"measurement": "Activity", "setting": "[12]", "value": 63.59, "unit": "%"}, {"measurement": "Activity", "setting": "[13]", "value": 20.55, "unit": "%"}, {"measurement": "Activity", "setting": "[14]", "value": 14.43, "unit": "%"}, {"measurement": "Activity", "setting": "[15]", "value": 1.42, "unit": "%"}]}]}
